# In US10052320B2, “Substituted quinoxalines as FGFR kinase inhibitors” (ASTEX THERAPEUTICS LIMITED, priority 2011, dated 2018):
# pIC50: −log10 of the molar value. Read-outs that look alike come from different tables or passages of the source.
# What was measured:
# FGFR3 (h) = FGFR3 (h) (Homo sapiens, UniProt P22607); experiment: FGFR3 (enzymatic assay), TR-FRET; assay type: biochemical; settings: read-out: FGFR 3 pIC50 (converted)
# Procedure: In a final reaction volume of 30 μL, FGFR3 (h) (40 ng/ml) was incubated with 50 mM HEPES pH 7.5, 6 mM MnCl2, 1 mM DTT, 0.1 mM Na3VO4, 0.01% Triton-X-100, 500 nM Btn-Flt3 and 25 μM ATP in the presence of compound (1% DMSO final). […] Time-Resolved Fluorescence Resonance Energy Transfer (TR-FRET) signal (ex340 nm. Em 620 nm, em 655 nm) was measured afterwards and results are expressed in RFU (Relative Fluorescence Units).
# [1] = target: Ba/F3-FGFR4-transfected cells (Homo sapiens, UniProt P22455); experiment: Ba/F3-FGFR4 cellular proliferation assay, Alamar Blue; assay type: cell-based
# Procedure, shortened: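 Alamar Blue fluorescence (540/590 nm, 4 h development) measured growth of FGFR4-transfected Ba/F3 cells after 24 h compound treatment at 37° C. Cells were seeded at 20000/well in RPMI-1640, 10% FBS.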
# [2] = target: Ba/F3-KDR-transfected cells (Homo sapiens, UniProt P35968); experiment: Ba/F3-KDR (minus IL3) cellular proliferation assay, Alamar Blue; assay type: cell-based
# Procedure, shortened: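 Readout is resazurin (Alamar Blue) fluorescence, ex 540/em 590 nm, after 4 h, following 24 h compound exposure of KDR-transfected Ba/F3 cells at 37° C, 5% CO2 in 10% FBS RPMI. Plus-IL3 arm adds 10 ng/ml murine IL3; otherwise same conditions.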
# FGFR2 (h) = FGFR2 (h) (Homo sapiens, UniProt P21802); experiment: FGFR2 (enzymatic assay), TR-FRET; assay type: biochemical; settings: read-out: FGFR 2 pIC50 (converted)
# Procedure: In a final reaction volume of 30 μL, FGFR2 (h) (150 ng/ml) was incubated with 50 mM HEPES pH 7.5, 6 mM MnCl2, 1 mM DTT, 0.1 mM Na3VO4, 0.01% Triton-X-100, 500 nM Btn-Flt3 and 0.4 μM ATP in the presence of compound (1% DMSO final). […] Time-Resolved Fluorescence Resonance Energy Transfer (TR-FRET) signal (ex340 nm. Em 620 nm, em 655 nm) was measured afterwards and results are expressed in (Relative Fluorescence Units).
# [3] = target: Ba/F3-FGFR3-transfected cells (Homo sapiens, UniProt P22607); experiment: Ba/F3-FGFR3 (minus IL3) cellular proliferation assay, Alamar Blue; assay type: cell-based; settings: for BAF3-FGFR 3 (MIN IL3) 384 well pIC50: minus IL3, 384 well; for BAF3-FGFR 3 (MIN IL3) 96 well pIC50: minus IL3, 96 well
# Procedure, shortened: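 Counterscreen adds 10 ng/ml murine IL3, otherwise matching the IL3-free run. In both, FGFR3-transfected Ba/F3 cells (20000 or 10000 per well) incubate with compound for 24 h at 37° C. and 5% CO2; viability is read as resazurin fluorescence (540/590 nm) after 4 h with Alamar Blue.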
# KDR (h) (VEGFR2) = KDR (h) (VEGFR2) (Homo sapiens, UniProt P35968); experiment: KDR (VEGFR2) (enzymatic assay), TR-FRET; assay type: biochemical
# Procedure, shortened: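 TR-FRET readout (ex 340, em 620/655 nm) in RFU after EDTA stop with Eu-anti-phosphotyrosine and SA-XL665 for 60 min. The preceding 120-min room-temperature kinase step used 150 ng/ml KDR (h), 3 μM ATP, 500 nM biotinylated Flt3 peptide, MnCl2-containing HEPES buffer pH 7.5, 1% DMSO.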
# Sequence of FGFR3 (h) (P22607 23-806): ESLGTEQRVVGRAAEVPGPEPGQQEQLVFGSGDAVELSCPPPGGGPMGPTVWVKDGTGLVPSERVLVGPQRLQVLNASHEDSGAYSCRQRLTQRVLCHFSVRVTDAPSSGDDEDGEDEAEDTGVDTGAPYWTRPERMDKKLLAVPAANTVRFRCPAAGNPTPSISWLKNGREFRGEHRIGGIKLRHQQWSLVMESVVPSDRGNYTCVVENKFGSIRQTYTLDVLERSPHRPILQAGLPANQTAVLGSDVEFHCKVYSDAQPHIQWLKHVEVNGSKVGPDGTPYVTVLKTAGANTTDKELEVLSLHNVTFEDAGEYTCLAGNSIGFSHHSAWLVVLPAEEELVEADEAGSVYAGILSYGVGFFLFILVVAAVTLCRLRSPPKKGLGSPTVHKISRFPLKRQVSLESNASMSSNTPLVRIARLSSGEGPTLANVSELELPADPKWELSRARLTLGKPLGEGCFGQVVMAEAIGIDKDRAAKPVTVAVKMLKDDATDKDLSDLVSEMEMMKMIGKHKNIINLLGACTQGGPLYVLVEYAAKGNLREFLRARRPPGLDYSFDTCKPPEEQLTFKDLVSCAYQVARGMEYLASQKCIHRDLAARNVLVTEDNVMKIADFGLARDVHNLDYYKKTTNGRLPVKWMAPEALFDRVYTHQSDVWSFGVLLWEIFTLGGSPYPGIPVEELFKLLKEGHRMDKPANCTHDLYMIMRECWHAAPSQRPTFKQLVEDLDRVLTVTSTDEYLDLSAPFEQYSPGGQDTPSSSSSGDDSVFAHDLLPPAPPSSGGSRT
# Sequence of FGFR2 (h) (P21802 22-821): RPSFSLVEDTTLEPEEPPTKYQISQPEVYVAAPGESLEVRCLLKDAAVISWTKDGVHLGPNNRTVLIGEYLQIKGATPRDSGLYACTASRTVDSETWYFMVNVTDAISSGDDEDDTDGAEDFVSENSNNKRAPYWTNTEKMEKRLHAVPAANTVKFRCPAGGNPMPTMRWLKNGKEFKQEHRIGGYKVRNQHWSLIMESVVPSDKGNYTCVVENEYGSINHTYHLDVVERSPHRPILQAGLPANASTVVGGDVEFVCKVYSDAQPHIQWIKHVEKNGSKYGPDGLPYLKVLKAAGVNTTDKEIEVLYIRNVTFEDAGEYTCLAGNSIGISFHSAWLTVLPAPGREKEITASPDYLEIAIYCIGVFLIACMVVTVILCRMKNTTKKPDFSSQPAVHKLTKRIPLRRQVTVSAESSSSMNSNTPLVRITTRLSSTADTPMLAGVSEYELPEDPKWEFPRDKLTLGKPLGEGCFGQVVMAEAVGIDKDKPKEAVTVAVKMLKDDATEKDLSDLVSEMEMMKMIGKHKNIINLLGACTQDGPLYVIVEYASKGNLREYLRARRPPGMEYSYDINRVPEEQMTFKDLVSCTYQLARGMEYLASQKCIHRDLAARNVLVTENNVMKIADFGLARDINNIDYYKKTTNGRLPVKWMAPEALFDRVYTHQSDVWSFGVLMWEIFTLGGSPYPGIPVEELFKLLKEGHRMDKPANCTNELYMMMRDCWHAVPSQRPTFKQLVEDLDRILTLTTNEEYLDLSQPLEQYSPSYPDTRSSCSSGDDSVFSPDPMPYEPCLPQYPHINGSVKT
# Sequence of Ba/F3-FGFR3-transfected cells (P22607 whole entry, change not shown): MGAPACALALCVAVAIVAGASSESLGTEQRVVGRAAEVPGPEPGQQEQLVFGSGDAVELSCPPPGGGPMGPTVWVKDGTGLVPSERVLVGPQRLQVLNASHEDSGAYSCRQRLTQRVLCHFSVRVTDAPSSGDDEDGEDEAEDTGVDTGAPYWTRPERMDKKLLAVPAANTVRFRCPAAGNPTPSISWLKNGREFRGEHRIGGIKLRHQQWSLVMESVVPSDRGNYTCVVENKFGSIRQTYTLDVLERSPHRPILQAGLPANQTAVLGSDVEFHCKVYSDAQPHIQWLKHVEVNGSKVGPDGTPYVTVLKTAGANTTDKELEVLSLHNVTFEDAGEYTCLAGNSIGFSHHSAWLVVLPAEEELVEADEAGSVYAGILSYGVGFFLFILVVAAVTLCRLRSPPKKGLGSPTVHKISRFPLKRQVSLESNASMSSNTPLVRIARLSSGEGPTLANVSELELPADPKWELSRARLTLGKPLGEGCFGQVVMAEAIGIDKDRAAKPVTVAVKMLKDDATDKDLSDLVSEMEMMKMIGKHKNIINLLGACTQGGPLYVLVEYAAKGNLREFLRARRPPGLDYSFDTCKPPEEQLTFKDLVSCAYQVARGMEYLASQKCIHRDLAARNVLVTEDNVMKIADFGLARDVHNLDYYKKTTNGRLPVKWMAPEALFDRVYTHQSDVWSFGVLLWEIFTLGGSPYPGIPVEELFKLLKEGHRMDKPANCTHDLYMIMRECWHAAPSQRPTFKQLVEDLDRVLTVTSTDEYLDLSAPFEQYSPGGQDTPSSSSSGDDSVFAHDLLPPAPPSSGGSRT
# Sequence of Ba/F3-FGFR4-transfected cells (P22455 whole entry, change not shown): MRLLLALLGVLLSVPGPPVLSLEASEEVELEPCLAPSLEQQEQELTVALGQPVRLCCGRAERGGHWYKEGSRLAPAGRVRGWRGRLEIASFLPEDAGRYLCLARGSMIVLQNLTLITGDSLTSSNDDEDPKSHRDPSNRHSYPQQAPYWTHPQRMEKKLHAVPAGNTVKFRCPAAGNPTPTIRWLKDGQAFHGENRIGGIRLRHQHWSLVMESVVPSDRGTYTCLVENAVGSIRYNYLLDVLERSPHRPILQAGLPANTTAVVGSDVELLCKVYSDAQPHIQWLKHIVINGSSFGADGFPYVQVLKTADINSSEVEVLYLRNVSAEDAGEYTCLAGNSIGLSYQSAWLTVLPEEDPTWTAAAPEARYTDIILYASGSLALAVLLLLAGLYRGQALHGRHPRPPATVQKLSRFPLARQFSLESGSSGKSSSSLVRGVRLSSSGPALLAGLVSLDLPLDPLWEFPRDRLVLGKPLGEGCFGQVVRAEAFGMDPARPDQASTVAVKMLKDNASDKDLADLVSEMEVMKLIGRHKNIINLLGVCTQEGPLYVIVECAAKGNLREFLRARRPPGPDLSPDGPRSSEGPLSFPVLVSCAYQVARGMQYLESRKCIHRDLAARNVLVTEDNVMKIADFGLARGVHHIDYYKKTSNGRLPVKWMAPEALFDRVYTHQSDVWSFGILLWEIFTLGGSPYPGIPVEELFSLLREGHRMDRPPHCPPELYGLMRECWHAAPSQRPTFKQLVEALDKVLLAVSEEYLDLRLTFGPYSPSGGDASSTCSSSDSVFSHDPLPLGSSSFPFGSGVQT
# Sequence of KDR (h) (VEGFR2) (P35968 20-1356): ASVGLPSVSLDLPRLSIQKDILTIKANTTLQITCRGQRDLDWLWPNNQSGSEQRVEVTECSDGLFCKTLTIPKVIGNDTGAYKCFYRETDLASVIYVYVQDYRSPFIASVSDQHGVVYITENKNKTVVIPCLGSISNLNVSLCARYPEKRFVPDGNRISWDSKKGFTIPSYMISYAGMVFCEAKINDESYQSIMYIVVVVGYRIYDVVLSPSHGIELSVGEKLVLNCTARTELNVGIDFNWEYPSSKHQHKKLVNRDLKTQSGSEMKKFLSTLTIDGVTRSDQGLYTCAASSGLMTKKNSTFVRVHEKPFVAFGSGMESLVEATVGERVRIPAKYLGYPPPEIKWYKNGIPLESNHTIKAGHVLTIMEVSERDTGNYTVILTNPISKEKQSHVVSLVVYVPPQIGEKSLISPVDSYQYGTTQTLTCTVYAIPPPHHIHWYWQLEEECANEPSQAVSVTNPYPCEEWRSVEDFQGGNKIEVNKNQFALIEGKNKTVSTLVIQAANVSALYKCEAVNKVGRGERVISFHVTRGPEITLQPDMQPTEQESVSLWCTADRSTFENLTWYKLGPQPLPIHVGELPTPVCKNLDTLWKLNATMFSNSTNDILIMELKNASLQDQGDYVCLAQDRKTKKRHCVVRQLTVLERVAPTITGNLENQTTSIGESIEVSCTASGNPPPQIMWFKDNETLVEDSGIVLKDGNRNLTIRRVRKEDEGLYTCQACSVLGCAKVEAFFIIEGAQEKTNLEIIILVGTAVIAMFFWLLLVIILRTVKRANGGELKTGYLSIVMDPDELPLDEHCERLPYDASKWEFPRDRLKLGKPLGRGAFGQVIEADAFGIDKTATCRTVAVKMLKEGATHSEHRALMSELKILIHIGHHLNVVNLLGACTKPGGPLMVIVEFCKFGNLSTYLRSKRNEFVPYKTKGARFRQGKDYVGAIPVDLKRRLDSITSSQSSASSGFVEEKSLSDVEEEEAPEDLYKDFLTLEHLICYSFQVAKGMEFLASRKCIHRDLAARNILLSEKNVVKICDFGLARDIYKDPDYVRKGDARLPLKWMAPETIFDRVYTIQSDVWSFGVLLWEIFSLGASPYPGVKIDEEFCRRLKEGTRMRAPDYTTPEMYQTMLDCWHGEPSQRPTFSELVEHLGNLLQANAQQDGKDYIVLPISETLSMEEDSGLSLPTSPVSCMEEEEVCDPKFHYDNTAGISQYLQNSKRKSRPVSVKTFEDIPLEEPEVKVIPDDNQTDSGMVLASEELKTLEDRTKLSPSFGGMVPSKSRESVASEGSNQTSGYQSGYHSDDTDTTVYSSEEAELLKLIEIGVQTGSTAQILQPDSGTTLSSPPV
SMILES,IC50 (FGFR3 (h)),BAF3-FGFR4 pIC50 [1],BAF3-KDR (MIN IL3) 384 well pIC50 ([2]; minus IL3),IC50 (FGFR2 (h)),BAF3-FGFR 3 (MIN IL3) 384 well pIC50 [3],pIC50 (KDR (h) (VEGFR2)),BAF3-FGFR 3 (MIN IL3) 96 well pIC50 [3],BAF3-FGFR4 pIC50 ([1]; 384 well),"BAF3-KDR (MIN IL3) 384 well pIC50 ([2]; minus IL3, 384 well)"
CO/N=C(\C)c1cnc2ccc(N(CCO)c3cc(OC)cc(OC)c3)cc2n1 [Compound 29],38.9 nM,<5,<5,115 nM,5.5,< 6.00,–,–,–
COc1cc(OC)cc(N(CCCNCC(F)(F)F)c2ccc3ncc(-c4ccnc(C(=O)NCCCCCO)c4)nc3c2)c1 [Compound 150],49 nM,~5.0,<5,70.8 nM,5.11,6.15,–,–,–
COc1cc(OC)cc(N(CCNC(C)C)c2ccc3ncc(C(=O)NCCCN4CCCCC4)nc3c2)c1 [Compound 182],126 nM,5.7,<5,26.3 nM,5.64,6.95,–,–,–
COc1cc(OC)cc(N(CCN)c2ccc3ncc(-c4ccn(C)c4)nc3c2)c1 [Compound 79],1.86 nM,6.7,5.45,2.63 nM,~6.64,7.65,–,–,–
COc1cc(OC)cc(N(CCNC(C)C)c2ccc3ncc(-c4ccn[nH]4)nc3c2)c1 [Compound 189],6.17 nM,6.23,5.14,2.29 nM,~7.1,6.90,–,–,–
COc1cc(OC)cc(N(CC2CC2)c2ccc3ncc(-n4cccn4)nc3c2)c1 [Compound 95],1450 nM,<5,<5,> 10000 nM,<5,< 5.00,<5,–,–
COc1cc(OC)cc(N(CCCO)c2ccc3ncc(-c4ccnc(Cl)c4)nc3c2)c1 [Compound 136],10.2 nM,<5,<5,25.7 nM,5.71,6.11,–,–,–
COc1cc(OC)cc(N(CCCNCC(F)(F)F)c2ccc3ncc(-c4ccn(C)c4)nc3c2)c1 [Compound 5],9.55 nM,5.7,5.07,15.1 nM,6.57,6.90,–,–,–
COc1cc(OC)cc(N(CC2CC2)c2ccc3ncc(C(=O)N4CCC4)nc3c2)c1 [Compound 93],2340 nM,<5,<5,> 10000 nM,<5,< 5.00,<5,–,–
COc1cc(OC)cc(N(CCO)c2ccc3ncc(C4=CCN(C(=O)OC(C)(C)C)C4)nc3c2)c1 [Compound 173],10.2 nM,5.6,<5,32.4 nM,6.08,6.32,–,–,–
COc1cc(OC)cc(N(CCO)c2ccc3ncc(C(=O)Nc4cnn(C)c4)nc3c2)c1 [Compound 184],110 nM,5.1,<5,155 nM,5.27,< 6.00,–,–,–
COc1cc(OC)cc(N(CCO)c2ccc3ncc(-n4cnc(CO)c4)nc3c2)c1 [Compound 38],10.5 nM,5.8,<5,25.7 nM,6.23,6.15,–,–,–
COc1cc(OC)cc(N(CC2CC2)c2ccc3ncc(-c4nnc(C)o4)nc3c2)c1 [Compound 85],191 nM,–,–,380 nM,<5,5.08,5.06,<5,<5
COc1cc(OC)cc(N(CCNC(C)C)c2ccc3ncc(-c4ccc(N5CCOCC5)nc4)nc3c2)c1 [Compound 168],3.24 nM,6.9,5.75,3.72 nM,~7.15,7.20,–,–,–
"COCC(O)CN(c1cc(OC)cc(OC)c1)c1ccc2ncc(-c3cccnc3)nc2c1 (single isomer, unassigned) [Compound 47]",22.4 nM,5.5,<5,17.4 nM,6.3,6.47,–,–,–
COc1cc(OC)cc(N(CCO)c2ccc3ncc(-c4ccc(N5CCN(C(=O)OC(C)(C)C)CC5)cc4)nc3c2)c1 [Compound 156],24 nM,5.4,<5,95.5 nM,5.79,6.39,–,–,–
COc1cc(OC)cc(N(CCCNCC(=O)O)c2ccc3ncc(-c4ccnc(C(=O)NCCCCN)c4)nc3c2)c1 [Compound 44],11.2 nM,<5.35,<5,11 nM,<5,6.52,–,–,–
COc1cc(OC)cc(N(CCN2CCNCC2)c2ccc3ncc(-c4ccc(N)nc4)nc3c2)c1 [Compound 59],9.12 nM,6.1,5.66,4.07 nM,5.9,7.34,–,–,–
COc1cc(OC)cc(N(CCNC(C)C)c2ccc3ncc(C(=O)N4CCN(C)CC4)nc3c2)c1 [Compound 179],380 nM,<5,<5,427 nM,5.19,7.11,–,–,–
COc1cc(OC)cc(N(CCNC(C)C)c2ccc3ncc(C(=O)N4CCCCC4)nc3c2)c1 [Compound 180],263 nM,5.2,<5,302 nM,5.28,6.72,–,–,–
